How the values were obtained:
[1] = test system: B. henselae and B. vinsonii; experiment: MIC assay, summary over both species; format: cell-based, Bartonella; conditions: BAPGM and Grace's liquid media
Procedure: Optical density (OD) of 7-day old bacterial liquid culture that was grown from an individual colony was measured using a spectrophotometer (Bio-Rad, SmartSpec 300, 170-2501). Bacterial culture was then diluted down to an OD of 0.1 ? 3×10^8 cfu/ml with the respective media.
To determine the MIC of the antibiotics and for the visualization of the bacterial growth, a clear 96-well plate was used. Into each well of a 96-well plate, 50 μl of the 0.1 OD bacterial culture and 50 μl of the liquid media containing antibiotics were added to the wells bringing the total volume to 100 μl of 0.05 OD bacteria (CFU ? 1.5×10^7) in each well. Wells containing only bacteria with solvent used in the dilution of the antibiotics served as a positive control to verify the growth of bacteria. As a negative control, wells containing only media and solvents were used. Each concentration of diluted antibiotic was run in 4 replicates to minimize the error rate. The 96-well plate was covered with the lid and incubated at 37° C. with 5% CO2. OD of the culture was read after 48 hrs and 96 hrs using a hybrid multi-mode microplate reader (Biotek, Synergy H4 hybrid reader) at OD600. The assay was repeated three times.
The determination of susceptibility to therapeutic agents was performed in liquid culture media. Six different therapeutic agents were tested with multiple different concentrations against B. henselae and B. vinsonii. Therapeutic agent concentrations tested were as follows: Ceftriaxone 0.001, 0.01, 0.1, 0.3, 0.5, 1, 2, and 5 μg/ml; doxycycline 0.001, 0.01, 0.1, 0.3, 0.5, 1, 2, 5, and 10 μg/ml, gentamicin: 0.01, 0.1, 0.3, 0.5, 1, 2, 4, 8, and 16 μg/ml, and azithromycin: 0.001, 0.005, 0.02, 0.1, 0.3, 0.5, 1, 2, 5, and 10 μg/ml, were tested based on previous antibiotic susceptibility studies. The following azlocillin dilutions were included: 0.001, 0.005, 0.01, 0.02, 0.5, 1, 2, and 5 μg/ml. The ampicillin dilutions included were as follows: 0.001, 0.005, 0.01, 0.02, 0.5, 1, 2, 4, and 8 μg/ml. Both the species of Bartonella were susceptible to all the antibiotics that were used in BAPGM and Grace's culture liquid mediums. MICs ranged from 0.01 to 0.1 μg/ml for ceftriaxone, doxycycline, and ampicillin, 2.0-4.0 μg/ml for gentamicin, 0.1-0.5 μg/ml for azithromycin, and 0.001-0.01 μg/ml for azlocillin. […] However, both the bacteria were not susceptible towards any of the antibiotics when tested in Schneider's insect medium (Table 1).

B. henselae = conditions: cited from earlier work

| Molecule | MICs ranged [1] [µg/mL] | activity against growing bacterial culture (B. henselae; growing culture) | activity against stationary phase B. henselae (B. henselae; stationary phase) | susceptibility / inhibition of growth [1] |
| --- | --- | --- | --- | --- |
| gentamicin | 2.0 to 4.0 | – | – | – |
| CC[C@H]1OC(=O)[C@H](C)[C@@H](O[C@H]2C[C@@](C)(OC)[C@@H](O)[C@H](C)O2)[C@H](C)[C@@H](O[C@@H]2O[C@H](C)C[C@H](N(C)C)[C@H]2O)[C@](C)(O)C[C@@H](C)CN(C)[C@H](C)[C@@H](O)[C@]1(C)O [Azithromycin, azithromycin] | 0.1 to 0.5 | effective | very poor activity | – |
| CC1(C)S[C@@H]2[C@H](NC(=O)[C@H](NC(=O)N3CCNC3=O)c3ccccc3)C(=O)N2[C@H]1C(=O)O [Azlocillin, azlocillin] | 0.001 to 0.01 | – | – | most effective in inhibiting the growth of both the species of Bartonella |
